In patent US20230002359A1, “PESTICIDALLY ACTIVE FUSED BICYCLIC HETEROAROMATIC COMPOUNDS” (priority 2019, published 2023):

Assays:
Type in all cases: in vivo
[1] = tested on: Plutella xylostella (Diamond Back Moth); assay: Example B4: Plutella xylostella (diamond back moth), artificial diet, eggs, 24-well; details: 192 h, application rate of 200 ppm, 8 days after infestation, eggs, read-out: control in at least one of the two categories (mortality or growth inhibition)
Protocol: 24-well microtiter plates with artificial diet were treated with aqueous test solutions prepared from 10′000 ppm DMSO stock solutions by pipetting. After drying, Plutella eggs were pipetted through a plastic stencil onto a gel blotting paper and the plate was closed with it. The samples were assessed for mortality and growth inhibition in comparison to untreated samples 8 days after infestation.

[2] = tested on: Chilo suppressalis (Striped Rice Stemborer); assay: Example B3: Chilo suppressalis (striped rice stemborer), artificial diet, L2 larvae; details: 144 h, application rate of 200 ppm, 6 days after infestation, L2 larvae, read-out: control in at least one of the three categories (mortality, anti-feedant effect, or growth inhibition)
Summary of the method: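 First, artificial diet was treated with aqueous solutions prepared from 10'000 ppm DMSO stocks; second, after drying, L2 larvae (6-8/well) were added; third, effects were assessed at 6 days against untreated controls, counting control when any of three categories was higher.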

[3] = tested on: Diabrotica Balteata (Corn Root Worm); assay: Example B1: Diabrotica balteata (corn root worm), maize sprouts sprayed, L2 larvae; details: 96 h, application rate of 200 ppm, 4 days after infestation, L2 larvae, read-out: control in at least one of the two categories (mortality or growth inhibition)
Summary of the method: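 Maize sprouts on agar were sprayed with aqueous test solutions made from 10′000 ppm DMSO stocks, dried, then infested with 6 to 10 L2 larvae per well. Mortality and growth inhibition were scored against untreated samples 4 days after infestation.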

[4] = tested on: Spodoptera littoralis (Egyptian Cotton Leaf Worm); assay: Example B7: Spodoptera littoralis (Egyptian cotton leaf worm), cotton leaf discs sprayed, L1 larvae; details: foliar, 72 h, application rate of 200 ppm, 3 days after infestation, L1 larvae, read-out: control in at least one of the three categories (mortality, anti-feedant effect, or growth inhibition)
Summary of the method: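 Leaf discs on agar sprayed with aqueous dilutions of 10′000 ppm DMSO stocks, dried, then infested with five L1 larvae. Mortality, anti-feeding and growth inhibition scored versus untreated 3 days after infestation; control given when any category exceeds untreated.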

[5] = tested on: Myzus persicae (Green Peach Aphid); assay: Example B6: Myzus persicae (green peach aphid) intrinsic activity, sucrose solution; details: 120 h, test rate of 12 ppm, 5 days after infestation, intrinsic activity, read-out: mortality
Protocol: Test compounds prepared from 10′000 ppm DMSO stock solutions were applied by pipette into 24-well microtiter plates and mixed with sucrose solution. The plates were closed with a stretched Parafilm. A plastic stencil with 24 holes was placed onto the plate and infested pea seedlings were placed directly on the Parafilm. The infested plate was closed with a gel blotting paper and another plastic stencil and then turned upside down. The samples were assessed for mortality 5 days after infestation.

CC(c1ncnn1-c1ccc(OC(F)F)cn1)N(C)c1ncnc2c(C(F)(F)F)cc(Br)cc12 (centres unmarked) [P.194, 6-bromo-N-[1-[2-[5-(difluoromethoxy)-2-pyridyl]-1,2,4-triazol-3-yl]ethyl]-N-methyl-8-(trifluoromethyl)quinazolin-4-amine]
≥ 80%: percent control (mortality or growth inhibition) at 200 ppm [1] | percent control (mortality, anti-feedant effect or growth inhibition) at 200 ppm [2] | percent control (mortality or growth inhibition) at 200 ppm [3] | percent control (mortality, anti-feedant effect or growth inhibition) at 200 ppm [4] | mortality at 12 ppm [5]

CC(Nc1ncnc2c(Br)cc(Cl)cc12)c1ncnn1-c1ncccn1 (centres unmarked) [P.171, 8-bromo-6-chloro-N-[1-(2-pyrimidin-2-yl-1,2,4-triazol-3-yl)ethyl]quinazolin-4-amine]
≥ 80%: percent control (mortality or growth inhibition) at 200 ppm [1] | percent control (mortality, anti-feedant effect or growth inhibition) at 200 ppm [2] | percent control (mortality or growth inhibition) at 200 ppm [3] | percent control (mortality, anti-feedant effect or growth inhibition) at 200 ppm [4] | mortality at 12 ppm [5]

CC(c1nccnc1-c1ncccn1)N(C)c1ncnc2c(C(F)(F)F)cc(Cl)cc12 (centres unmarked) [P.132, 6-chloro-N-methyl-N-[1-(3-pyrimidin-2-ylpyrazin-2-yl)ethyl]-8-(trifluoromethyl)quinazolin-4-amine]
≥ 80%: percent control (mortality or growth inhibition) at 200 ppm [1] | percent control (mortality, anti-feedant effect or growth inhibition) at 200 ppm [2] | percent control (mortality or growth inhibition) at 200 ppm [3] | percent control (mortality, anti-feedant effect or growth inhibition) at 200 ppm [4] | mortality at 12 ppm [5]

CC(c1nccnc1-c1ncccn1)N(C)c1ncnc2c(Br)cc(Cl)cc12 (centres unmarked) [P.182, 8-bromo-6-chloro-N-methyl-N-[1-(3-pyrimidin-2-ylpyrazin-2-yl)ethyl]quinazolin-4-amine]
≥ 80%: percent control (mortality or growth inhibition) at 200 ppm [1] | percent control (mortality or growth inhibition) at 200 ppm [3] | percent control (mortality, anti-feedant effect or growth inhibition) at 200 ppm [4] | mortality at 12 ppm [5]

C[C@@H](c1ncnn1-c1ncccn1)N(C)c1ccnc2c(C(F)(F)F)cc(C(F)(F)F)cc12 [P.88, N-methyl-N-[(1S)-1-(2-pyrimidin-2-yl-1,2,4-triazol-3-yl)ethyl]-6,8-bis(trifluoromethyl)quino-lin-4-amine]
≥ 80%: percent control (mortality or growth inhibition) at 200 ppm [1] | percent control (mortality, anti-feedant effect or growth inhibition) at 200 ppm [2] | percent control (mortality or growth inhibition) at 200 ppm [3] | mortality at 12 ppm [5]

C[C@@H](c1ncnn1-c1ncccn1)N(C)c1ncnc2c(Cl)cc(OC(F)F)cc12 [P.91, 8-chloro-6-(difluoromethoxy)-N-methyl-N-[(1S)-1-(2-pyrimidin-2-yl-1,2,4-triazol-3-yl)ethyl]quinazolin-4-amine]
≥ 80%: percent control (mortality or growth inhibition) at 200 ppm [1] | percent control (mortality, anti-feedant effect or growth inhibition) at 200 ppm [2] | percent control (mortality or growth inhibition) at 200 ppm [3] | mortality at 12 ppm [5]

CC(c1ncnn1-c1ccc(OC(F)F)cn1)N(C)c1ncnc2c(C(F)(F)F)cc(C(F)(F)F)cc12 (centres unmarked) [P.192]
≥ 80%: percent control (mortality or growth inhibition) at 200 ppm [1] | percent control (mortality, anti-feedant effect or growth inhibition) at 200 ppm [2] | percent control (mortality or growth inhibition) at 200 ppm [3] | percent control (mortality, anti-feedant effect or growth inhibition) at 200 ppm [4]

CC(c1nccnc1-c1ncccn1)N(CC1CC1)c1ncnc2c(C(F)(F)F)cc(Cl)cc12 (centres unmarked) [P.131, 6-chloro-N-(cyclopropylmethyl)-N-[1-(3-pyrimidin-2-ylpyrazin-2-yl)ethyl]-8-(trifluoromethyl)quinazolin-4-amine]
≥ 80%: percent control (mortality or growth inhibition) at 200 ppm [1] | percent control (mortality, anti-feedant effect or growth inhibition) at 200 ppm [2] | percent control (mortality or growth inhibition) at 200 ppm [3] | percent control (mortality, anti-feedant effect or growth inhibition) at 200 ppm [4]
